Values quoted from earlier work, collected in patent publication US12691091B2, “Compositions comprising cetylated fatty acids for use in the treatment of gastric mucosa, diabetes and high blood glucose levels” (PHARMANUTRA S.P.A., priority 2019, dated 2026).

Details: European Union food additive E319

acceptable daily intake (ADI): 0.7 mg/kg of body weight
Structure (SMILES): CC(C)(C)c1cc(O)ccc1O [TBHQ, Tert-butyl-hydroquinone]
